The results in this text go back to ChEMBL document CHEMBL1135069, “The discovery of acylated beta-amino acids as potent and orally bioavailable VLA-4 antagonists” (Bioorg Med Chem Lett, 2002).

Data set [1] in a line: Bioavailability in rat (dose 1 mg/kg i.v. and 2 mg/kg p.o.). The following applies: in vivo, po, F.
In data set [2] the target is T1, Integrin alpha-4/beta-1 (Homo sapiens, UniProt P05556+P13612). As to the kind of experiment: Inhibitory activity against alpha-4 beta-1 receptor (VLA-4) in human RPMI-8866 cells using [125I]-VCAM-Ig ligand. The class given is cell-based.
The nature of a further data set: in vivo. The note with it: Sprague-Dawley, rat, plasma, iv, 1 mg/kg.
The target in data set [3] is T1, Integrin alpha-4/beta-1. As to the kind of experiment: Inhibition of [125I]VCAM-Ig binding to alpha4-beta1 (VLA-4) of human RPMI-8866 cells. In kind it is cell-based.
For the next data set, the species on record is Rattus norvegicus. The following applies: in vivo, iv, 1 mg/kg.

Each structure is given as a SMILES string.

T1 sequence (P05556 whole entry): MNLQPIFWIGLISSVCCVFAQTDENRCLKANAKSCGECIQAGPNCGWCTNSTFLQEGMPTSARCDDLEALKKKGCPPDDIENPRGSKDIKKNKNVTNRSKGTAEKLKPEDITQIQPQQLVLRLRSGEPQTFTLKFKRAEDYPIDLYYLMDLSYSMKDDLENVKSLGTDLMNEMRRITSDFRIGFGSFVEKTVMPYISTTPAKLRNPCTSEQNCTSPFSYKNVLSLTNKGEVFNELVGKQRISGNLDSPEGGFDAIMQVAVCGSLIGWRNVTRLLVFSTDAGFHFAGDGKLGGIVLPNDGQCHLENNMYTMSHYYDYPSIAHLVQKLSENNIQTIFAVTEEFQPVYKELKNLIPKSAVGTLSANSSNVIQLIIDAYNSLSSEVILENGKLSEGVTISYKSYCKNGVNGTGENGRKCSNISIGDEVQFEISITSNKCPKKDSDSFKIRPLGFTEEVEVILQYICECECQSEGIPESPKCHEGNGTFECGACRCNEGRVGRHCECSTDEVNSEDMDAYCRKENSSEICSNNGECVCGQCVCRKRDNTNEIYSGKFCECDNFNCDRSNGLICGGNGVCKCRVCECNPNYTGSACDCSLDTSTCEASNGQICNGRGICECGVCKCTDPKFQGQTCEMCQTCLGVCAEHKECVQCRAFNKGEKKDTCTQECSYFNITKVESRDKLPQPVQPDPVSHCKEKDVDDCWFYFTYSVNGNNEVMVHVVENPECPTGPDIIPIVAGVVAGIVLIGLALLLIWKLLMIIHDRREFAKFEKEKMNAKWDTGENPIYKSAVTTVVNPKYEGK
T1 sequence (P13612 whole entry): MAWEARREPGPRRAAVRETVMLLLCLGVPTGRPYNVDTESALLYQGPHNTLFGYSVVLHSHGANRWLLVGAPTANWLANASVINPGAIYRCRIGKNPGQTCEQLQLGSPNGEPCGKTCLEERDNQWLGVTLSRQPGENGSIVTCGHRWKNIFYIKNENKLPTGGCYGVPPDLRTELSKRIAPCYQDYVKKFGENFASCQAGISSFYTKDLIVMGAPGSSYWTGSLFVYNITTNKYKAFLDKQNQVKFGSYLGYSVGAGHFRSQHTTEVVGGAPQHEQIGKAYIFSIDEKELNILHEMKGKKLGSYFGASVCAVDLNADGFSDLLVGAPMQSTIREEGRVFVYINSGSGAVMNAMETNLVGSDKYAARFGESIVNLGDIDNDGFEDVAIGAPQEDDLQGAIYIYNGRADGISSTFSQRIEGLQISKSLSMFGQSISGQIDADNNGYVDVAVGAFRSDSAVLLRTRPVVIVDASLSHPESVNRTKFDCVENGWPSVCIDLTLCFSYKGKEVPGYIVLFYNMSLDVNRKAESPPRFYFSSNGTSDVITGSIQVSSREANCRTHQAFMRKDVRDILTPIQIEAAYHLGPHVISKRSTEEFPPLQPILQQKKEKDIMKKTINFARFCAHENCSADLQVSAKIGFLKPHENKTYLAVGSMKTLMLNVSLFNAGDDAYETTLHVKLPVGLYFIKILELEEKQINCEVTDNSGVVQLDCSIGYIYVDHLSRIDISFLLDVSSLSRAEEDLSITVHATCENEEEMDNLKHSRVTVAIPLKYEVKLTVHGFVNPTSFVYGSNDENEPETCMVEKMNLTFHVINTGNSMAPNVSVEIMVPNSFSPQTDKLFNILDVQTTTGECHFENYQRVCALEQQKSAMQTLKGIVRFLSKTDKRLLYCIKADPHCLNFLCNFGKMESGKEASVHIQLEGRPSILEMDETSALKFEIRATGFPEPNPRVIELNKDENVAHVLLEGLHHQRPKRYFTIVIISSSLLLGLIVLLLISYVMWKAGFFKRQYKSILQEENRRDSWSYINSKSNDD

With `COc1ccc([C@](C)(CC(=O)O)NC(=O)[C@@H]2CCN2S(=O)(=O)c2cc(Cl)cc(Cl)c2)cc1`, the bioavailability in data set [1] was determined as 19%. The compound also returned an IC50 against Integrin alpha-4/beta-1 [2] of 26 nM. In the data set “in vivo”, this compound displayed a clearance of 46 mL/min/kg. For `O=C(O)CCNC(=O)[C@@H]1CCCN1S(=O)(=O)c1cc(Cl)cc(Cl)c1`, on Integrin alpha-4/beta-1 [2], the IC50 stood at 1510 nM. As to `COc1ccc([C@@H](CC(=O)O)NC(=O)[C@@H]2CCN2S(=O)(=O)c2cc(Cl)cc(Cl)c2)cn1`, the IC50 against Integrin alpha-4/beta-1 [2] came to 3 nM. In “in vivo”, this compound came in with a clearance of 55 mL/min/kg. For `O=C(O)C[C@@H](NC(=O)[C@@H]1CCN1S(=O)(=O)c1cc(Cl)cc(Cl)c1)c1ccc(Oc2ccccc2)cc1`, half-maximal inhibition at Integrin alpha-4/beta-1 [2] (IC50) required 3.1 nM. As to `O=C(O)C[C@@H](NC(=O)[C@@H]1CCN1S(=O)(=O)c1cc(Cl)cc(Cl)c1)c1ccc(OC2CC2)cc1`, at Integrin alpha-4/beta-1 [2], inhibition was half-maximal at 0.31 nM (IC50). This compound also yielded a clearance in “in vivo” of 70 mL/min/kg. In the case of `O=C(O)[C@H](Cc1ccccc1)NC(=O)[C@@H]1CCCN1S(=O)(=O)c1cc(Cl)cc(Cl)c1`, the midpoint of inhibition on Integrin alpha-4/beta-1 [2], the IC50, lay at 1.4 nM. `O=C(O)C[C@@H](NC(=O)[C@@H]1CCN1S(=O)(=O)c1cc(Cl)cc(Cl)c1)c1ccc(Cl)c(F)c1` gave an IC50 on Integrin alpha-4/beta-1 [2] of 11 nM. Compound `O=C(O)C[C@@H](NC(=O)[C@@H]1CCN1S(=O)(=O)c1cc(Cl)cc(Cl)c1)c1ccc(OCC(F)(F)F)cc1` yielded a bioavailability in data set [1] of 38%. Besides, the IC50 at Integrin alpha-4/beta-1 [2] was found to be 1.4 nM. This compound also displayed a clearance in “in vivo” of 43 mL/min/kg.

The compound `O=C(O)C[C@H](Cc1ccccc1)NC(=O)[C@@H]1CCCN1S(=O)(=O)c1cc(Cl)cc(Cl)c1` showed an IC50 on Integrin alpha-4/beta-1 [2] of 22 nM. Same read-out and setting: the value for `CC(C)(C)Oc1ccc([C@@H](CC(=O)O)NC(=O)[C@@H]2CCCN2S(=O)(=O)c2cc(Cl)cc(Cl)c2)cc1` was 0.53 nM. Compound `O=C(O)C[C@@H](NC(=O)[C@@H]1CCCN1S(=O)(=O)c1cc(Cl)cc(Cl)c1)c1ccc(O)cc1` showed an IC50 on Integrin alpha-4/beta-1 [2] of 0.74 nM. The compound further displayed a clearance in “in vivo” of 22 mL/min/kg.

As for `COc1ccc([C@@H](CC(=O)O)NC(=O)[C@]2(C)CCN2S(=O)(=O)c2cc(Cl)cc(Cl)c2)cc1`, 1.5 nM corresponded to half-maximal inhibition at Integrin alpha-4/beta-1 [2] (IC50). In “in vivo”, this compound yielded a clearance of 7 mL/min/kg. At Integrin alpha-4/beta-1 [2], `CCOc1ccc([C@@H](CC(=O)O)NC(=O)[C@@H]2CCCN2S(=O)(=O)c2cc(Cl)cc(Cl)c2)cc1` yielded an IC50 of 0.27 nM. The compound also registered a clearance in the data set “in vivo” of 40 mL/min/kg.

Take `Cc1ccccc1NC(=O)Nc1ccc(CN[C@@H](CC(C)C)C(=O)N[C@@H](CC(=O)O)c2ccc3c(c2)OCO3)cc1`: half-maximal inhibition at Integrin alpha-4/beta-1 [2] (IC50) was put at 3 nM. Turning to `C/C=C/[C@@H](CC(=O)O)NC(=O)[C@@H]1CCCN1S(=O)(=O)c1cc(Cl)cc(Cl)c1`, the midpoint of inhibition on Integrin alpha-4/beta-1 [2], the IC50, lay at 13 nM. This IC50 lies about 4.3-fold higher than the previous one.

`O=C(O)C[C@H](NC(=O)[C@@H]1CCCN1S(=O)(=O)c1cc(Cl)cc(Cl)c1)c1ccccc1` showed an IC50 on Integrin alpha-4/beta-1 [2] of 544 nM. `O=C(O)C[C@@H](NC(=O)[C@@H]1CCN1S(=O)(=O)c1cc(Cl)cc(Cl)c1)c1ccc(OC(F)F)cc1` yielded an IC50 against Integrin alpha-4/beta-1 [2] of 1.3 nM. This IC50 lies about 420-fold lower than the previous one. `CS(=O)(=O)c1ccc([C@@H](CC(=O)O)NC(=O)[C@@H]2CCCN2S(=O)(=O)c2cc(Cl)cc(Cl)c2)cc1` came in with an IC50 at Integrin alpha-4/beta-1 [2] of 0.55 nM. Moreover, the clearance in the data set “in vivo” amounted to 92 mL/min/kg.

`CC(C)[C@H](CC(=O)O)NC(=O)[C@@H]1CCCN1S(=O)(=O)c1cc(Cl)cc(Cl)c1` showed an IC50 against Integrin alpha-4/beta-1 [2] of 362 nM.

The compound `O=C(O)C[C@@H](NC(=O)[C@@H]1CCN1S(=O)(=O)c1cc(Cl)cc(Cl)c1)c1ccc(F)cc1` registered an IC50 on Integrin alpha-4/beta-1 [2] of 3.2 nM. On Integrin alpha-4/beta-1 [2], `O=C(O)C[C@@H](NC(=O)[C@@H]1CCN1S(=O)(=O)c1cc(Cl)cc(Cl)c1)c1ccc(Br)cc1` came in with an IC50 of 2.1 nM. On Integrin alpha-4/beta-1 [2], `O=C(O)C[C@@H](NC(=O)[C@@H]1CCN1S(=O)(=O)c1cc(Cl)cc(Cl)c1)c1ccc(OC2CCCC2)cc1` registered an IC50 of 0.5 nM. Also, the clearance in the data set “in vivo” was found to be 165 mL/min/kg. In “in vivo”, `O=C(O)C[C@@H](NC(=O)[C@@H]1CCN1S(=O)(=O)c1cc(Cl)cc(Cl)c1)c1ccccc1` registered a clearance of 27 mL/min/kg. In addition, the IC50 on Integrin alpha-4/beta-1 [3] was found to be 2.4 nM. The compound `O=C(O)C[C@@H](NC(=O)[C@@H]1CCCN1S(=O)(=O)c1cc(Cl)cc(Cl)c1)c1ccc(OC(F)(F)F)cc1` showed an IC50 on Integrin alpha-4/beta-1 [2] of 2.6 nM. In “in vivo”, this compound gave a clearance of 22 mL/min/kg. As for `CC(C)[C@@H](CC(=O)O)NC(=O)[C@@H]1CCCN1S(=O)(=O)c1cc(Cl)cc(Cl)c1`, the IC50 at Integrin alpha-4/beta-1 [2] was 8.9 nM. `O=C(O)C[C@@H](NC(=O)[C@@H]1CCCN1S(=O)(=O)c1cc(Cl)cc(Cl)c1)c1ccc(OC2CC2)cc1` had an IC50 on Integrin alpha-4/beta-1 [2] of 0.85 nM. Moreover, in the data set “in vivo”, the clearance amounted to 26 mL/min/kg.

In the case of `COc1ccc([C@@H](CC(=O)O)NC(=O)[C@@H]2CCN2S(=O)(=O)c2cc(Cl)cc(Cl)c2)cc1` (stereo in doubt; 6g), the clearance in the data set listed under Rattus norvegicus was found to be 39 mL/min/kg. This compound yielded an IC50 against Integrin alpha-4/beta-1 [2] of 0.39 nM.

Compound `COc1ccc([C@@H](CC(=O)O)NC(=O)[C@@H]2CCN2S(=O)(=O)c2cc(Cl)cc(Cl)c2)cc1` (stereo in doubt; 7g) gave a clearance in the data set listed under Rattus norvegicus of 17 mL/min/kg. For the same compound, the IC50 at Integrin alpha-4/beta-1 [2] worked out at 0.49 nM. Consider `O=C(O)C[C@@H](NC(=O)[C@@H]1CCN1S(=O)(=O)c1cc(Cl)cc(Cl)c1)c1ccc(OCF)cc1`, for which the half-inhibitory concentration (IC50) against Integrin alpha-4/beta-1 [2] was found to be 0.72 nM. This lies in the sub-nanomolar range.

Usually bioavailability stands for dose-corrected exposure relative to a reference, in per cent. A low value points to little systemic uptake. Usually IC50 stands for the concentration that inhibits the measured activity by half. Lower therefore signals inhibition by little substance. In general, clearance refers to the rate of elimination divided by the concentration. High values mean efficient removal, low ones inefficient removal.
